Data as given in patent publication US20060252706A1, “Composition for slimming” (priority 2003, published 2006).

Columns and labels:
[1] = system: skin of a New Zealand white rabbit; test: Skin irritation (Draize Primary Irritation Index)
Protocol: Skin irritations caused by theanine, caffeine, genistein, L-carnitine and catechin were measured observing edema and erythema on the skin of a New Zealand white rabbit.
Vehicle, 10% of theanine, caffeine, genistein, L-carnitine, catechin or mixture thereof were applied on the skin of a New Zealand white rabbit, twice a day for 4 days, total 8 times. After application, total skin irritation index was calculated by summing up the scores of erythema and edema. The skin irritation index was calculated according to Draize's skin Primary Irritation Index (P.I.I.) (Draize, J. H., Appraisal of the safety of chemical in foods, drugs and cosmetics).

[2] = system: 3T3-L1 cells; test: Accumulation of neutral fat in fat cells (GPO-trinder, absorption at 540 nm); format: cell-based, rat; settings: 3T3-L1 cells treated during cell differentiation; compared with control; FIG. 4
Protocol: (§1) 3T3-L1 cell, fibroblast cell line of […], was inoculated in 6 well culture plate with 1×10^5cells/well and cultured in DMEM (Dulbecos modified eagles medium, GIBCO BRL, Life Technologes) containing 10% of fetal bovine serum (FBS). After 2 days of culture, culture medium was changed with a new DMEM (containing 10% FBS), and cultured further 2 days. Then the culture cell was deposited in a new DMEM (containing 10% FBS) containing 1 μg/ml of insulin, 0.5 mM of IBMX and 0.25 μM of dexamethasone to induce differentiation, after 2 days, the culture medium was changed with a new DMEM containing insulin, and cultured for 5 days. After 5 days of culture, the culture medium was changed with a normal DMEM (containing 10% FBS), and observed until cells changed to fat cells (adipocytes).
3T3-L1 fat cells differentiated in the Reference Example 2 were washed with PBS (phosphate buffered saline) three times, and harvested with extraction buffer (20 mM of Tris, 1 mM of EDTA and 1 mM of 2-mercaptoethanol). The harvested cells passed G26 needle 6 times on an ice base, centrifuged at 15000×g, 4° C. for 3 minutes and the supernatant was gathered to obtain cell extracts. […]
Neutral fats in the cell extracts obtained same as Experimental Example 3 underwent chromphoric reaction using GPO-trinder kit purchased from Sigma (St. Louis, Mo., U.S.A.), and absorption was measured at 540 nm using ELISA reader.

[3] = system: 3T3-L1 fat cells; test: Cell toxicity of theanine at high concentration; format: cell-based, mouse
[4] = system: β3-adrenergic receptor; test: Expression of β3-adrenergic receptor by RT-PCR in 3T3-L1 fat cells; format: cell-based, rat; settings: 0.005%, 24 hours, FIG. 2
Protocol: as §1
In order to clarify the mechanism of acceleration of decomposition of neutral fat by the theanine, 3T3-L1 fat cells differentiated in the Reference Example 2 were used. The cells were treated with 0.005% of theanine purchased from KuridaKogyo (Japan) (more than 97%) and comparative materials (caffeine, control), and 24 hours later, RNAs were extracted from the cells and performed RT-PCR. The RT-PCR kit was purchased from TaKaRa, and primer of β3 -adrenergic receptor was purchased from Bioneer.

[5] = system: 3T3-L1 fat cells; test: Decomposition of fat: glycerol isolated into culture medium from 3T3-L1 fat cells; format: cell-based, rat; settings: FIG. 1
Protocol: as §1
The degree of the decomposition of fat was observed by measuring the concentration of glycerol isolated into the culture medium from fat cell. Measurement of the quantity of the glycerol was performed with chromphoric reaction method using GPO-trinder kit purchased from Sigma (St. Louis, Mo., U.S.A.), and absorption was measured in 540 nm using ELISA reader, then the result of each component was calculated based on the data of the control settled to be 100%. […]

[6] = New Zealand white rabbit, compared with control
[7] = New Zealand white, rabbit, in vivo, 4 days

SMILES | Primary Irritation Index (0˜4) ([1]; 10% solution on rabbit skin, twice a day for 4 days, total 8 times) | skin irritation [1, 6] | Primary Irritation Index (0˜4) [1, 7] | skin irritation ([1]; rabbit, in vivo) | amount of neutral fat [2] | cell toxicity [3] | expression of β3-adrenergic receptor [4] | concentration of glycerol isolated into the culture medium from fat cell ([5]; compared with the control (100%)) | effect of decomposition of fat compared with caffeine (positive comparative control) ([5]; same concentration of caffeine)
O=c1c(-c2ccc(O)cc2)coc2cc(O)cc(O)c12 [genistein] | 0.8 | do not cause skin irritation |  |  |  |  |  |  | 
C[N+](C)(C)C[C@H](O)CC(=O)[O-] [L-carnitine] |  |  | 0.7 | do not cause skin irritation |  |  |  |  | 
Cn1c(=O)c2c(ncn2C)n(C)c1=O [caffeine, reference compound] |  | do not cause skin irritation | 0.7 |  |  |  |  |  | 
CCNC(=O)CC[C@H](N)C(=O)O [theanine] |  |  | 0.8 | do not cause skin irritation | decreased | does not cause cell toxicity | increases | increased | more excellent effect of decomposition of fat than that of caffeine
